This is an account of results in patent US5378689A, “Peptides having renin inhibitory activity, their preparation and use” (Sankyo Company, Limited, priority 1989, dated 1995).

One test addresses T1, human renin (Homo sapiens, UniProt P00797).
T1 sequence (P00797 67-406): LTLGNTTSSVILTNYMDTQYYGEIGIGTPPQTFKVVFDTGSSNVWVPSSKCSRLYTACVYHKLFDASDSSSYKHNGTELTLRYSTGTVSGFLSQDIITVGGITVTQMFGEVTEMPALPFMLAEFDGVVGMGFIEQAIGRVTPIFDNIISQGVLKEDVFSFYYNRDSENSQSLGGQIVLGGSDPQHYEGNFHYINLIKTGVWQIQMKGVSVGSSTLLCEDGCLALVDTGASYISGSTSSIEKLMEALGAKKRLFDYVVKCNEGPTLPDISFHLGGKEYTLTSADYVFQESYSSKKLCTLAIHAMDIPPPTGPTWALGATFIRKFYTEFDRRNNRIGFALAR
In words: Inhibition of renin activity (human renin, sheep angiotensinogen, remaining angiotensin I assayed). It counts as biochemical. To be noted: 1×10^-7 M test compound, pH 7.3, 37° C., 10 minutes, mean of 3 or 4 experiments. How it is done:
The ability of various compounds of the invention to inhibit the activity of renin was determined according to the following method, which follows essentially the procedure of Kokubu et al. [Hypertension, 5, 191-197 (1983)].
Specifically, each test compound was dissolved in 60% v/v aqueous ethanol. Human renin activity in the presence and absence of each compound was measured using sheep angiotensinogen. The total volume of 1 ml of assay mixture contained 0.1 mole/liter phosphate buffer (pH 7.3), human renin (equivalent to 0.5 ng angiotensin I per ml per minute), sheep angiotensinogen (equivalent to 200 ng angiotensin I), 1×10^-7 M of the test compound, 6% v/v ethanol and angiotensinase inhibitors (10 mmole/liter sodium ethylenediaminetetraacetate and 3.4 mmole/liter 8-hydroxyquinoline). The mixture was allowed to react for 10 minutes at 37° C., and then the reaction was stopped by placing the reaction tube in a boiling water bath for 5 minutes. The mixture was then centrifuged and the supernatant (0.05-0.1 ml) was used to assay remaining angiotensin I.
An identical experiment was carried out, as a control, except that the test compound was omitted. From the values obtained were calculated the % inhibition of renin activity achieved by each test compound. The results are shown in the following Table 2, in which the compounds of the invention are identified by the numbers of the Examples given hereafter in which are described their preparation. The values given are the mean of 3 or 4 experiments.
For `CCCCNC(=O)[C@H](C)C[C@H](O)[C@H](CC1CCCCC1)NC(=O)[C@H](Cc1cscn1)NC(=O)[C@@H](CC(=O)N(C)Cc1ccccc1)Cc1ccccc1` [Example 8, (2R, 4S, 5S)-5-{N-[2(R)-Benzyl-3-(N-benzyl-N-methylaminocarbonyl)propionyl]-3-(4-thiazolyl)-L-alanyl}-amino-N-butyl-6-cyclohexyl-4-hydroxy-2-methylhexanamide], the “Inhibitory activity (%) Against Human Renin (1 × 10^-7 M)” value came to 96.2%. As to `CCCCNC(=O)[C@@H](C[C@H](O)[C@H](CC1CCCCC1)NC(=O)[C@H](Cc1cscn1)NC(=O)[C@@H](CC(=O)N1CCOCC1)Cc1ccc(OC)cc1)C(C)C` [Example 4], the “Inhibitory activity (%) Against Human Renin (1 × 10^-7 M)” value amounted to 96.9%. On to `CCCCNC(=O)[C@H](C)C[C@H](O)[C@H](CC1CCCCC1)NC(=O)[C@H](Cc1cscn1)NC(=O)[C@@H](CC(=O)N1CCOCC1)Cc1ccccc1` [Example 6], for which the “Inhibitory activity (%) Against Human Renin (1 × 10^-7 M)” value is 96.1%. Turning to `CNC(=O)[C@H](C)C[C@H](O)[C@H](CC1CCCCC1)NC(=O)[C@H](Cc1cscn1)NC(=O)[C@@H](CC(=O)N(C)Cc1ccccc1)Cc1ccccc1` [Example 14, (2R, 4S, 5S )-5-{N-[2(R)-Benzyl-3-(N-benzyl-N-methylaminocarbonyl)propionyl]-3-(4-thiazolyl)-L-alanyl}-amino-6-cyclohexyl-4-hydroxy-2,N-dimethylhexanamide], the “Inhibitory activity (%) Against Human Renin (1 × 10^-7 M)” value is 95.7%.

Staying with this test, now noted: 1×10^-7 M test compound, pH 7.3, 37° C., 10 minutes, mean of 3 or 4 experiments, read-out: Inhibitory activity (%) Against Human Renin (1 × 10^-7 M).
Consider `CCCCNC(=O)[C@@H](C[C@H](O)[C@H](CC1CCCCC1)NC(=O)[C@H](Cc1cscn1)NC(=O)[C@@H](CC(=O)N(C)Cc1ccccc1)Cc1ccccc1)C(C)C` [Example 16, (2S, 4S, 5S)-5-{N-[2(R)-Benzyl-3-(N-benzyl-N-methylaminocarbonyl)propionyl]-3-(4-thiazolyl)-L-alanyl}amino-N-butyl-6-cyclohexyl-4-hydroxy-2-isopropylhexanamide], for which the inhibition at 0.1 µM was found to be 94.8%. On to `CNC(=O)[C@@H](C[C@H](O)[C@H](CC1CCCCC1)NC(=O)[C@H](Cc1cscn1)NC(=O)[C@@H](CC(=O)N1CCOCC1)Cc1ccccc1)C(C)C` [Example 1, (2S, 4S, 5S)-5-{N-[2(R)-Benzyl-3-(morpholinocarbonyl)-propionyl]-3-(4-thiazolyl)-L-alanyl}amino-6-cyclohexyl-4-hydroxy-2-isopropyl-N-methylhexanamide], for which the inhibition at 0.1 µM worked out at 95.2%. For the compound `CNC(=O)[C@H](C)C[C@H](O)[C@H](CC1CCCCC1)NC(=O)[C@H](Cc1cscn1)NC(=O)[C@@H](CC(=O)N1CCOCC1)Cc1ccccc1` [Example 5, (2R, 4S, 5S)-5-{N-[2(R)-Benzyl-3-(morpholinocarbonyl)-propionyl]-3-(4-thiazolyl)-L-alanyl}amino-6-cyclohexyl-4-hydroxy-2,N-dimethylhexanamide], the inhibition at 0.1 µM turned out to be 95.6%.

Regarding `CNC(=O)[C@@H](C[C@H](O)[C@H](CC1CCCCC1)NC(=O)[C@H](Cc1cscn1)NC(=O)[C@@H](CC(=O)N1CCOCC1)Cc1ccc(OC)cc1)C(C)C` [Example 3, (2S, 4S, 5S)-5-{N-[2(R)-(4-Methoxybenzyl)-3-(morpholinocarbonyl)propionyl]-3-(4-thiazolyl)-L-alanyl}amino-6-cyclohexyl-4-hydroxy-2-isopropyl-N-methylhexanamid], the inhibition at 0.1 µM was determined as 93.1%. Regarding `CCCCNC(=O)[C@H](C)C[C@H](O)[C@H](CC1CCCCC1)NC(=O)[C@H](Cc1cscn1)NC(=O)[C@@H](CC(=O)N(C)Cc1ccccc1)Cc1ccc(OC)cc1` [Example 11, (2R, 4S, 5S)-N-Butyl-6-cyclohexyl-4-hydroxy-5-{N-[2(R)-(4-methoxybenzyl)-3-(N-benzyl-N-methylaminocarbonyl)-propionyl]-3-(4-thiazolyl)-L-alanyl}amino-2-methylhexanamide], the inhibition at 0.1 µM was found to be 91.6%. Same read-out and setting: as for `CCCCNC(=O)[C@@H](C[C@H](O)[C@H](CC1CCCCC1)NC(=O)[C@H](Cc1cscn1)NC(=O)[C@@H](CC(=O)N1CCOCC1)Cc1ccccc1)C(C)C` [Example 2, (2S, 4S, 5S)-5-{N-[2(R)-Benzyl-3-(morpholinocarbonyl)-propionyl]-3-(4-thiazolyl)-L-alanyl}amino-N-butyl-6-cyclohexyl-4-hydroxy-2-isopropylhexanamide], the figure is 96%.
